Experimental data published in US4207419A, “Prostaglandin derivatives” (American Home Products Corporation, priority 1977, dated 1980).

What was measured:
[1] = Hypotensive effects in the anesthetized dog by the intravenous route; format: in vivo; settings: average of two animals
Procedure: In the use of the compounds of the invention to produce hypotensive effects in warm-blooded animals, administration by the injectable route is preferred, preferably the intravenous route.
Thus in the anesthetized dog by the intravenous route the dose to produce hypotension is from about 1 μg/kg. to about 200 μg/kg. and preferably from about 10 μg/kg. to about 100 μg/kg. Using this procedure the following results were obtained:
*Average of two animals.

[2] = test system: bronchoconstricting effects of a standard dose of acetylcholine; test: Bronchodilation upon aerosol inhalation, method of Rosenthale et al.; format: in vivo; settings: guinea pig, i.v. acetylcholine producing ca. 30% bronchoconstriction
From the text: In using the compounds of the invention to produce bronchodilating effects in warm-blooded animals, they may be administered in a variety of dosage forms: oral, injectable, and aerosol inhalation. Aerosol inhalation is a preferred method because of its rapid onset of action, great potency, and specificity of action. The particular dosage to obtain the bronchodilating effect will vary with the particular compound employed, the particular animal involved, and the degree of bronchodilation desired. In the guinea pig, by aerosol inhalation, the dose to produce bronchodilation is from about 0.15 micrograms to about 25 micrograms, and preferably from about 0.15 to about 15 micrograms. The bronchodilation produced upon aerosol inhalation can be observed by the method of Rosenthale et al., J. Pharmacol. Exp. Ther., 178, 541 (1971). Using this procedure the following results were obtained:
*The dose (i.v. of acetylcholine which produces a ca. 30%

Structure (SMILES) | Δ B.P. ([1]; dose 10 μg/kg.) | Δ B.P. ([1]; dose 100 μg/kg.) | Percent Inhibition of the bronchoconstricting effects of a standard dose of acetylcholine ([2]; dose 0.15 μg) | Percent Inhibition of the bronchoconstricting effects of a standard dose of acetylcholine ([2]; dose 1.50 μg) | Percent Inhibition of the bronchoconstricting effects of a standard dose of acetylcholine ([2]; dose 15 μg)
CC(C)(c1ccccc1)[C@H](O)CC[C@H]1CCC(=O)[C@@H]1CCCCCCC(=O)O (relative stereo) [dl-2β-[(3R)-3-Hydroxy-4,4-Dimethyl-4-Phenyl-1-Butyl]-5-Oxo-1α-Cyclopentane Heptanoic Acid] | -14 mm. Hg. | -26 mm. Hg. |  |  | 
CC(C)(Cc1ccccc1)[C@H](O)/C=C/[C@H]1CCC(=O)[C@@H]1CCCCCCC(=O)O (relative stereo) [dl-2β-[(3R)-3-Hydroxy-4,4-Dimethyl-5-Phenyl-trans-1-Pentenyl]-5-Oxo-Cyclopentane Heptanoic Acid] |  |  | 46% | 66% | 60%
CC(C)(c1ccccc1)[C@H](O)/C=C/[C@H]1CCC(=O)[C@@H]1C/C=C\CCCC(=O)O (relative stereo) [dl-7-{2β-[(3R)-3-Hydroxy-4,4-Dimethyl-4-Phenyl-trans-1-Butenyl]-5-Oxo-1α-Cyclopentyl}-cis-5-Heptenoic Acid] | -30 mm. Hg. |  |  |  | 
